Results published in patent publication US10597388B2, “Pyridazinone herbicides” (FMC CORPORATION, priority 2014, dated 2020).

How the values were obtained:
Type in all cases: in vivo
[1] = tested on: ALOMY, blackgrass (Alopecurus myosuroides); test: Test F mixtures with commercial herbicides, Post- or Pre-emergence; conditions: Table F3, Post-emergence, scale 0-100
Procedure: (§1) This test evaluated the effect of mixtures of Compound 1 or Compound 2 with various commercial herbicides on multiple plant species. Seeds of multiple plant species selected were planted into Sandy Loam soil and treated either Post-emergence or Pre-emergence with test chemicals formulated in a non-phytotoxic solvent mixture. Plants were grown in a greenhouse using supplemental lighting to maintain a photoperiod of approximately 16 h; daytime and nighttime temperatures were approximately 24-30 and 19-21° C., respectively. Balanced fertilizer was applied through the watering system. Treated plants and controls were maintained in a greenhouse for 20 d, after which time all species were compared to controls and visually evaluated. Plant response ratings summarized in Tables F1 through F4 and are based on a scale of 0 to 100 where 0 is no effect and 100 is complete control. A dash (-) response means no test result. Application rates (i.e. “Rate”) are expressed in grams of active ingredient per hectare (g a.i./ha). In the following tables KCHSC is kochia (Kochia scoparia), LOLMU in Italian Ryegrass (Lolium multiflorum), AMBEL is common ragweed (Ambrosia elatior), ECHCG is barnyardgrass (Echinochloa crus-galli), SETVI is giant foxtail (Setaria faberii), AMARE is redroot pigweed (Amaranthus retroflexus), ALOMY is blackgrass (Alopecurus myosuroides) and GALAP is galium (Galium aparine). “Obsd.” is observed effect. “Exp.” is expected effect calculated from Colby's Equation.
(§2) Colby's Equation was used to determine the herbicidal effects expected from the mixtures. Colby's Equation (Colby, S. R. “Calculating Synergistic and Antagonistic Responses of Herbicide Combinations,” Weeds, 15(1), pp 20-22 (1967)) calculates the expected additive effect of herbicidal mixtures, and for two active ingredients is of the form: Pa+b=Pa+Pb−(PaPb/100)
(§3) wherein Pa+b is the percentage effect of the mixture expected from additive contribution of the individual components:
(§4) Pa is the observed percentage effect of the first active ingredient at the same use rate as in the mixture, and
(§5) Pb is the observed percentage effect of the second active ingredient at the same use rate as in the mixture.

[2] = tested on: AMARE, redroot pigweed (Amaranthus retroflexus); test: as above; conditions: scale 0-100
Procedure: as §1, §2, §3, §4, §5

[3] = tested on: AMBEL, common ragweed (Ambrosia elatior); test: as above; conditions: scale 0-100
Procedure: as §1, §2, §3, §4, §5

[4] = tested on: ECHCG, barnyardgrass (Echinochloa crus-galli); test: as above; conditions: scale 0-100
Procedure: as §1, §2, §3, §4, §5

[5] = tested on: GALAP, galium (Galium aparine); test: as above; conditions: Table F3, Post-emergence, scale 0-100
Procedure: as §1, §2, §3, §4, §5

[6] = tested on: KCHSC, kochia (Kochia scoparia); test: as above; conditions: scale 0-100
Procedure: as §1, §2, §3, §4, §5

[7] = tested on: LOLMU, Italian Ryegrass (Lolium multiflorum); test: as above; conditions: scale 0-100
Procedure: as §1, §2, §3, §4, §5

[8] = tested on: SETVI, giant foxtail (Setaria faberii); test: as above; conditions: scale 0-100
Procedure: as §1, §2, §3, §4, §5

[9] = tested on: Canada thistle (Cirsium arvense); test: Test D controlled growth environment herbicide test, pre- and postemergence
Method in brief: (§6)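 Pre-emergence: seeds sown in silt loam soil were sprayed with compound in a non-phytotoxic solvent mix containing surfactant. Post-emergence: plants at 2 to 18 cm (1- to 4-leaf stage) in peat moss/vermiculite medium got the same formulation. Visual 0–100 rating versus controls after 14 to 21 d.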

[10] = tested on: geranium, cutleaf (cutleaf geranium, Geranium dissectum); test: as above
Method in brief: as §6

[11] = Pre-emergence, Rate 16 g a.i./ha
[12] = Pre-emergence, Rate 62 g a.i./ha
[13] = Table F3, Post-emergence, Rate 16 g a.i./ha
[14] = Table F3, Post-emergence, Rate 62 g a.i./ha
[15] = Postemergence, 31 g ai/ha, scale 0 to 100 (0 no effect, 100 complete control)
[16] = Postemergence, 125 g ai/ha, visual rating on scale 0 (no effect) to 100 (complete control), 14 to 21 d
[17] = Postemergence, 250 g ai/ha, scale 0 to 100 (0 no effect, 100 complete control)
[18] = Preemergence, 125 g ai/ha, scale 0 to 100 (0 no effect, 100 complete control)
[19] = Preemergence, 250 g ai/ha, scale 0 to 100, 0 no effect, 100 complete control
[20] = postemergence, 62 g ai/ha, scale 0 to 100, 0 no effect, 100 complete control

Cc1cc(C)c2sc(C)c(-c3c(O)c(C)nn(C)c3=O)c2c1 [Compound 2, 5-hydroxy-2,6-dimethyl-4-(2,5,7-trimethylbenzo[b]thien-3-yl)-3(2H)-pyridazinone]
ALOMY Obsd. ([1]; Rate 16 g a.i./ha): 20 | ALOMY Obsd. ([1]; Rate 62 g a.i./ha): 60 | AMARE Obsd. [2, 11]: 25 | AMARE Obsd. [2, 12]: 75 | AMARE Obsd. [2, 13]: 25 | AMARE Obsd. [2, 14]: 80 | AMBEL Obsd. [3, 11]: 30 | AMBEL Obsd. [3, 12]: 95 | AMBEL Obsd. [3, 13]: 40 | AMBEL Obsd. [3, 14]: 80 | ECHCG Obsd. [4, 11]: 0 | ECHCG Obsd. [4, 12]: 25 | ECHCG Obsd. [4, 13]: 5 | ECHCG Obsd. [4, 14]: 20 | GALAP Obsd. ([5]; Rate 16 g a.i./ha): 100 | GALAP Obsd. ([5]; Rate 62 g a.i./ha): 100 | KCHSC Obsd. [6, 11]: 0 | KCHSC Obsd. [6, 12]: 0 | KCHSC Obsd. [6, 13]: 50 | KCHSC Obsd. [6, 14]: 75 | LOLMU Obsd. [7, 11]: 0 | LOLMU Obsd. [7, 12]: 50 | LOLMU Obsd. [7, 13]: 75 | LOLMU Obsd. [7, 14]: 95 | SETVI Obsd. [8, 11]: 60 | SETVI Obsd. [8, 12]: 98 | SETVI Obsd. [8, 13]: 15 | SETVI Obsd. [8, 14]: 80

Cc1nn(C)c(=O)c(-c2cccc3ccc(Br)cc23)c1O [Compound 126]
Canada Thistle plant response rating [9, 15]: 98 | Plant response rating, Canada Thistle [9, 16]: 98 | Plant response rating, Canada Thistle [9, 17]: 100 | Plant response rating (scale of 0 to 100), Canada Thistle ([9]; Preemergence, 31 g ai/ha): 0 | Plant response rating, Canada Thistle ([9]; Preemergence, 62 g ai/ha, scale 0 to 100 (0 no effect, 100 complete control)): 15 | Plant response rating, Canada Thistle [9, 18]: 95 | Plant response rating, Canada Thistle [9, 19]: 95 | Plant response rating, Canada Thistle [9, 20]: 100 | Geranium, Cutleaf plant response rating [10, 15]: 30 | Plant response rating, Geranium, Cutleaf [10, 16]: 80 | Plant response rating, Geranium, Cutleaf [10, 17]: 90 | Plant response rating (scale of 0 to 100), Geranium, Cutleaf ([10]; Preemergence, 31 g ai/ha): 0 | Plant response rating (scale of 0 to 100), Geranium, Cutleaf ([10]; Preemergence, 62 g ai/ha): 0 | Plant response rating, Geranium, Cutleaf [10, 18]: 0 | Plant response rating, Geranium, Cutleaf [10, 19]: 15 | Plant response rating, Geranium, Cutleaf [10, 20]: 40
